Our source for the IC50 values is patent US20220062436A1, “DRUG-PROTEIN CONJUGATES” (priority 2012, published 2022).

In experiment [1] the test system is HER2-positive SK-BR-3 cells. Briefly: Cell viability assay (CellTiter Glo luminescence), inhibition of cell growth. In kind it is cell-based. As to conditions: 96 h incubation. The protocol:
(§1) The in vitro efficacy of the mAb-reagent 1 conjugates were determined by measuring the inhibitory effect on cell growth of HER-2 receptor over-expressing cancer cell lines.
(§2) Loss of tumour cell viability following treatment with cytotoxic drugs or ADCs in vitro can be measured by growing cell lines in the presence of increasing concentrations of drugs or ADCs and quantifying the loss of proliferation or metabolic activity using CellTiter Glo® Luminescence reagent (Promega Corp. Technical Bulletin TB288; Lewis Phillips G. D, Cancer Res 2008; 68:9280-9290). The protocol describes cell seeding, drug treatment and determination of the cell viability in reference to untreated cells based on ATP synthesis, which is directly related to the number of cells present in the well.
(§3) HER2-positive SK-BR-3 and BT-474 cells were trypsinised with 3 mL Trypsin EDTA for 5-15 min. Trypsinisation was stopped by adding 10 mL complete medium, and cells were transferred to a 50 mL Falcon tube. Cells were counted using a Neubauer haemocytometer and adjusted to a cell density of 1×10^5/mL for BT-474 and 5×10^4/mL for SK-BR-3 respectively. Cells were seeded (100 μL/well) into poly-D-lysine coated opaque-walled 96-well plates and incubated for 24 h at 37° C. and 5% CO2. Tumour cell lines SK-BR-3 (ATCC-HTB-30) and BT-474 (ATCC-HTB-20) were purchased from the American Type Culture Collection. SK-BR-3 cells were grown in McCoy's 5A medium (Life Technologies®), 10% fetal bovine serum, 100 u/mL Penicillin and 100 μg/mL Streptomycin. BT-474 cells were grown in DMEM/F-12 medium (Life Technologies®), 10% fetal bovine serum, 100 u/mL Penicillin and 100 μg/mL Streptomycin. […]
(§4) The cell viability assay was carried out using the Cell-Titer Glo® Luminescence reagent, as described by the manufacturer's instructions, (Promega Corp. Technical Bulletin TB288; Lewis Phillips G. D, Cancer Res 2008; 68:9280-9290). […] Luminescence was recorded using a plate reader (e.g. MD Spectramax M3 plate reader), and data subsequently analysed using a four parameter non-linear regression model.
(§5) The results are shown in FIG. 6, which illustrates cell viability responses to treatment with either antibody-reagent 1 conjugate within SKBR-3 or BT-474 cells. Viability is expressed as % of untreated cells. […]
(§6) The in vitro efficacy of the reagent 6 and reagent 9 antibody conjugates prepared in Example 12 were determined by measuring the inhibitory effect on cell growth of HER-2 receptor over-expressing cancer cell lines by the method of Example 9.
(§7) The results are shown in FIG. 7, which illustrates cell viability responses to treatment with either reagent 6 conjugate or reagent 9 conjugate within SKBR-3 or BT-474 cells. Viability is expressed as % of untreated cells. […]

The test system of experiment [2] is HER2-positive BT-474 cells. The description is as above. It is filed as cell-based. As to conditions: 96 h incubation. The protocol:
as §1, §2, §3, §4, §5, §6, §7

SMILES strings stand for the structures. Square brackets hold non-standard residues; d marks the D form. Peptide text beside a SMILES is read from it. * marks the point of attachment. Dolaproine = CO[C@@H]([C@@H]1CCCN1)[C@@H](C)C(=O)O; Dil = CC[C@H](C)[C@H](NC)[C@@H](CC(=O)O)OC; X1 = C[C@@H](N*)[C@@H](O)c1ccccc1; NMeV = CN[C@H](C(=O)O)C(C)C

By IC50 is commonly meant the concentration that gives 50% inhibition. Higher therefore signals weaker potency in that assay. For the compound `CC[C@H](C)[C@@H]([C@@H](CC(=O)N1CCC[C@H]1[C@H](OC)[C@@H](C)C(=O)N[C@H](C)[C@@H](O)c1ccccc1)OC)N(C)C(=O)[C@@H](NC(=O)[C@@H](NC)C(C)C)C(C)C` [MMAE, monomethyl auristatin E] (H-[NMeV]V[Dil][Dolaproine]-X1), the IC50 in experiment [1] (Example 9, Table 5) stood at 0.2 nM; in experiment [1] (Example 13, Table 7), 0.27 nM; in experiment [2] (Example 9, Table 5) it was 0.75 nM; in experiment [2] (Example 13, Table 7), 0.85 nM.
